IC50 data for 27 molecules are collected here from patent US12012409B2, “Bicyclic heterocycles as FGFR inhibitors” (Incyte Corporation, priority 2020, dated 2024).

What all share (assay type): biochemical
Holding throughout (conditions): wild-type un-phosphorylated protein; pre-incubated for 4 hours; ATP near or below Km

In experiment [1] the target is wild-type un-phosphorylated FGFR3 (Homo sapiens, UniProt P22607). Kind of experiment: FGFR Enzymatic Assay (FRET peptide phosphorylation), FGFR3. On the procedure: (§1) The inhibitor potency of the exemplified compounds was determined in an enzyme discontinuous assay that measures peptide phosphorylation using FRET measurements to detect product formation. Inhibitors were serially diluted in DMSO and a volume of 0.2 μL was transferred to the wells of a 384-well plate. […] Appropriate controls (enzyme blank and enzyme with no inhibitor) were included on the plate. […] The ATP Km values were pre-determined in a separate series of experiments. […] The plate was allowed to equilibrate for ˜10 minutes at ambient temperature before scanning on a PheraStar plate reader (BMG Labtech) instrument.
Sequence of wild-type un-phosphorylated FGFR3 (P22607 23-806): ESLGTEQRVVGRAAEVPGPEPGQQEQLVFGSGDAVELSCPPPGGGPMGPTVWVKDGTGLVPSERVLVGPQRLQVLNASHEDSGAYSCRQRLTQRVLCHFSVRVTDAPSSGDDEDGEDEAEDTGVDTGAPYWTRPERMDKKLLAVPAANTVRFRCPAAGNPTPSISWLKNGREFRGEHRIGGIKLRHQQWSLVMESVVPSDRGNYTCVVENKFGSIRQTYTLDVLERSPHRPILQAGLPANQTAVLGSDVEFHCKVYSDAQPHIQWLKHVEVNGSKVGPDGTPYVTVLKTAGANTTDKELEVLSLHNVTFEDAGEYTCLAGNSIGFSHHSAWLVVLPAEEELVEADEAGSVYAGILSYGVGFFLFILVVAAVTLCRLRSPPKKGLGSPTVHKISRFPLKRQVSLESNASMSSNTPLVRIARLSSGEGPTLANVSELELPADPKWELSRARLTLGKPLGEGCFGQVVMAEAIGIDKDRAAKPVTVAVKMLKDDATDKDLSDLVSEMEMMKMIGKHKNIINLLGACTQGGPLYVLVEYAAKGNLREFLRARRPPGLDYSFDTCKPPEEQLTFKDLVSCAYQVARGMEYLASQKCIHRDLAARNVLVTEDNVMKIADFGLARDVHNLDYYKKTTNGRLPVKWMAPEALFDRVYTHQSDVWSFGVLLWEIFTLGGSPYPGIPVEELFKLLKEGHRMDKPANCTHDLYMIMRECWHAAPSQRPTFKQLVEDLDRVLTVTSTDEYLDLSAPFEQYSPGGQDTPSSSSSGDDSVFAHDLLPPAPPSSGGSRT
(§2) Either GraphPad prism or XLfit was used to analyze the data. The IC50 values were derived by fitting the data to a four parameter logistic equation producing a sigmoidal dose-response curve with a variable Hill coefficient. Prism equation: Y=Bottom+(Top−Bottom)/(1+10^((LogIC50−X)*Hill slope)); XLfit equation: Y=(A+((B−A)/(1+((X/C)^D)))) where X is the logarithm of inhibitor concentration and Y is the response.

Experiment [2] deals with wild-type un-phosphorylated FGFR1 (Homo sapiens, UniProt P11362). Nature of the experiment: FGFR Enzymatic Assay (FRET peptide phosphorylation), FGFR1. How it is done:
as §1, §2

For experiment [3], the target named is wild-type un-phosphorylated FGFR2 (Homo sapiens, UniProt P21802). Nature of the experiment: FGFR Enzymatic Assay (FRET peptide phosphorylation), FGFR2. On the procedure: as §1, §2
Sequence of wild-type un-phosphorylated FGFR2 (P21802 22-821): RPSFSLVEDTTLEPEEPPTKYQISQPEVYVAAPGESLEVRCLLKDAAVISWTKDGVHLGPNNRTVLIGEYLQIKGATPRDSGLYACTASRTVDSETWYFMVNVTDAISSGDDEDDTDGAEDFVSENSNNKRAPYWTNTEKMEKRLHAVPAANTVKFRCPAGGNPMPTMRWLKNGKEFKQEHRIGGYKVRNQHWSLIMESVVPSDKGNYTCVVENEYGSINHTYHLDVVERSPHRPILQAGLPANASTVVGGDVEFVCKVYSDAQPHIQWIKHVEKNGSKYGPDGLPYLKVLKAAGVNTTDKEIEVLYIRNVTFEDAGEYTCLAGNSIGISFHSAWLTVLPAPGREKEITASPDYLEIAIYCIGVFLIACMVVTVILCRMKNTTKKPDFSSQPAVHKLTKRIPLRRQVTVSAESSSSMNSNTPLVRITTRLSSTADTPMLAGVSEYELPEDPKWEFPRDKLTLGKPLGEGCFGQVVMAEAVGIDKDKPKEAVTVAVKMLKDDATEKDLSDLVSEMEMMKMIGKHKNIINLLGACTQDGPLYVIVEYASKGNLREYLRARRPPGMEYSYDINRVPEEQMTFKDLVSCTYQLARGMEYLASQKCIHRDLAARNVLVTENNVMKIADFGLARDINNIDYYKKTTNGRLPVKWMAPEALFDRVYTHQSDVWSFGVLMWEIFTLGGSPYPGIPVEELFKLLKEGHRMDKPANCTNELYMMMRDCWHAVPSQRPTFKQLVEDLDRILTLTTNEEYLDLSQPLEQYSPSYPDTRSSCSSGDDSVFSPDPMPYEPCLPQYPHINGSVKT
The data in Table 1 was measured in wild-type un-phosphorylated FGFR1, FGFR2, FGFR3 and FGFR4 protein.

The structures appear in SMILES notation.

Sequence of wild-type un-phosphorylated FGFR1 (P11362 22-822): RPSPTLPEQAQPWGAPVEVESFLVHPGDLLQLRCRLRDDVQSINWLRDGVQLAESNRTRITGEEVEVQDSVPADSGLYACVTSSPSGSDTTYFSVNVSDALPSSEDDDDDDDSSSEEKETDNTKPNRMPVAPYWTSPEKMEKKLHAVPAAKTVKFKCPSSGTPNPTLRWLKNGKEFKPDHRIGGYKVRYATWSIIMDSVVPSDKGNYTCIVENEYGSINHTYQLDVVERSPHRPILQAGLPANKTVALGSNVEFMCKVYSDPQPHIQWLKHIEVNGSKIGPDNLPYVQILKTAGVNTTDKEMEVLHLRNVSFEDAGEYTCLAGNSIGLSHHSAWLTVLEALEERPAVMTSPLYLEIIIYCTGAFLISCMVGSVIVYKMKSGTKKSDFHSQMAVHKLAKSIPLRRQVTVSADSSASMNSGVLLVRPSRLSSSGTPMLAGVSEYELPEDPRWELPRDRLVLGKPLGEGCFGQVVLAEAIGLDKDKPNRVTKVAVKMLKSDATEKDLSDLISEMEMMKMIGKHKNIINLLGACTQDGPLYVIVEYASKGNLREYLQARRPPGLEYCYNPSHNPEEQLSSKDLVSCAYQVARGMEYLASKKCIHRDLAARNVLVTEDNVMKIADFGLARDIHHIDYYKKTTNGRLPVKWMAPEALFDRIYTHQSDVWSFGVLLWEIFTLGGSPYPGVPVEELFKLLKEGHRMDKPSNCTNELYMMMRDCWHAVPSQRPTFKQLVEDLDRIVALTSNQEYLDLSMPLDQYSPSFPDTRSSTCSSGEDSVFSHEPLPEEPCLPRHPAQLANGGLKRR

On to `COc1nn2c(-c3cncc(C)c3)cnc2cc1-c1cnn(C)c1` [Example 3, 6-Methoxy-7-(1-methyl-1H-pyrazol-4-yl)-3-(5-methylpyridin-3-yl)imidazo[1,2-b]pyridazine], for which the IC50 in experiment [1] was 100 to 400 nM; in experiment [2] it was at least 400 nM.

`CNC(=O)c1cncc(-c2cnc3cc(-c4cnn(C)c4)c(OC)nn23)c1` [Example 4, 5-(6-Methoxy-7-(1-methyl-1H-pyrazol-4-yl)imidazo[1,2-b]pyridazin-3-yl)-N-methylnicotinamide] returned an IC50 in experiment [3] of 100 to 400 nM.

As to `COc1nn2c(-c3ccc4ncccc4c3)cnc2cc1-c1cnn(C)c1` [Example 5, 6-(6-Methoxy-7-(1-methyl-1H-pyrazol-4-yl)imidazo[1,2-b]pyridazin-3-yl)quinoline], the IC50 in experiment [1] and in experiment [2] was 100 to 400 nM each time.

For `COc1nn2c(-c3cccc(N4CCOCC4)c3)cnc2cc1-c1cnn(C)c1` [Example 6, 4-(3-(6-Methoxy-7-(1-methyl-1H-pyrazol-4-yl)imidazo[1,2-b]pyridazin-3-yl)phenyl)morpholine], the IC50 in experiment [1] and in experiment [2] was 100 to 400 nM each time.

For `COc1nn2c(-c3cccc(CC#N)c3)cnc2cc1-c1cnn(C)c1` [Example 7, 2-(3-(6-Methoxy-7-(1-methyl-1H-pyrazol-4-yl)imidazo[1,2-b]pyridazin-3-yl)phenyl)acetonitrile], the half-inhibitory concentration (IC50) in experiment [1] and in experiment [2] was 10 to 100 nM each time.

In the case of `CNS(=O)(=O)c1cccc(-c2cnc3cc(-c4cnn(C)c4)c(OC)nn23)c1` [Example 8, 3-(6-Methoxy-7-(1-methyl-1H-pyrazol-4-yl)imidazo[1,2-b]pyridazin-3-yl)-N-methylbenzenesulfonamide], the IC50 in experiment [1] and in experiment [2] was below 10 nM in each case.

For `COc1nn2c(-c3cccc(C(C)(C)O)c3)cnc2cc1-c1cnn(C)c1` [Example 9, 2-(3-(6-Methoxy-7-(1-methyl-1H-pyrazol-4-yl)imidazo[1,2-b]pyridazin-3-yl)phenyl)propan-2-ol], the IC50 in experiment [1] and in experiment [2] was 10 to 100 nM throughout.

For `COc1nn2c(-c3cccc(NC(C)=O)c3)cnc2cc1-c1cnn(C)c1` [Example 10, N-(3-(6-Methoxy-7-(1-methyl-1H-pyrazol-4-yl)imidazo[1,2-b]pyridazin-3-yl)phenyl)acetamide], the IC50 in experiment [1] and in experiment [2] was below 10 nM in each case.

On to `CNC(=O)c1cc(-c2ccc(F)cc2F)cc(-c2cnc3cc(-c4cnn(C)c4)c(OC)nn23)c1` [Example 11, 2′,4′-Difluoro-5-(6-methoxy-7-(1-methyl-1H-pyrazol-4-yl)imidazo[1,2-b]pyridazin-3-yl)-N-methyl-[1,1′-biphenyl]-3-carboxamide], for which the IC50 in experiment [1] was below 10 nM; in experiment [2], 10 to 100 nM.

Regarding `CNC(=O)c1ccc(OC)c(-c2cnc3cc(-c4cnn(C)c4)c(OC)nn23)c1` [Example 12, 4-Methoxy-3-(6-methoxy-7-(1-methyl-1H-pyrazol-4-yl)imidazo[1,2-b]pyridazin-3-yl)-N-methylbenzamide], the IC50 in experiment [1] and in experiment [2] was at least 400 nM throughout.

Turning to `CNC(=O)c1ccc(C#N)c(-c2cnc3cc(-c4cnn(C)c4)c(OC)nn23)c1` [Example 13, 4-Cyano-3-(6-methoxy-7-(1-methyl-1H-pyrazol-4-yl)imidazo[1,2-b]pyridazin-3-yl)-N-methylbenzamide], the IC50 in experiment [1] and in experiment [2] was at least 400 nM in each case.

As to `COc1nn2c(-c3cc(C(=O)NCC(F)(F)F)ccc3F)cnc2cc1-c1cnn(C)c1` [Example 14, 4-Fluoro-3-(6-methoxy-7-(1-methyl-1H-pyrazol-4-yl)imidazo[1,2-b]pyridazin-3-yl)-N-(2,2,2-trifluoroethyl)benzamide], the IC50 in experiment [1] and in experiment [2] was 10 to 100 nM in each case.

For `CNC(=O)c1cncc(-c2cnc3cc(-c4cnn(C)c4)c(OC4COC4)nn23)c1` [Example 15, N-Methyl-5-(7-(1-methyl-1H-pyrazol-4-yl)-6-(oxetan-3-yloxy)imidazo[1,2-b]pyridazin-3-yl)nicotinamide], the IC50 in experiment [1] was below 10 nM; in experiment [2] it was 10 to 100 nM.

Turning to `CNC(=O)c1cc(F)c(F)c(-c2cnc3cc(-c4cnn(C)c4)c(O[C@H]4CCN(C)C4)nn23)c1` [Example 16, (S)-3,4-Difluoro-N-methyl-5-(7-(1-methyl-1H-pyrazol-4-yl)-6-((1-methylpyrrolidin-3-yl)oxy)imidazo[1,2-b]pyridazin-3-yl)benzamide], the IC50 in experiment [1] and in experiment [2] was at least 400 nM each time.

In the case of `CNC(=O)c1cc(F)c(F)c(-c2cnc3cc(-c4cnn(C)c4)c(O[C@H]4CCNC4)nn23)c1` [Example 17, (S)-3,4-Difluoro-N-methyl-5-(7-(1-methyl-1H-pyrazol-4-yl)-6-(pyrrolidin-3-yloxy)imidazo[1,2-b]pyridazin-3-yl)benzamide], the values for the half-maximal inhibitory concentration (IC50) in experiment [1] and in experiment [2] were 10 to 100 nM and at least 400 nM, respectively.

Take `CNC(=O)c1cc(F)c(F)c(-c2cnc3cc(-c4cnn(C)c4)c(O[C@H]4CCNC4=O)nn23)c1` [Example 18, (S)-3,4-Difluoro-N-methyl-5-(7-(1-methyl-1H-pyrazol-4-yl)-6-((2-oxopyrrolidin-3-yl)oxy)imidazo[1,2-b]pyridazin-3-yl)benzamide]: the figures for the IC50 in experiment [1] and in experiment [2] were below 10 nM and 10 to 100 nM, respectively.

Consider `CNC(=O)c1cc(-c2cnc3cc(-c4cnn(C)c4)c(O[C@H]4CCOC4)nn23)c(F)c(N(C)C)c1` [Example 37, (S)-3-(Dimethylamino)-4-fluoro-N-methyl-5-(7-(1-methyl-1H-pyrazol-4-yl)-6-((tetrahydrofuran-3-yl)oxy)imidazo[1,2-b]pyridazin-3-yl)benzamide], for which the values for the half-inhibitory concentration (IC50) in experiment [1] and in experiment [2] were 10 to 100 nM and 100 to 400 nM, respectively.

`CNC(=O)c1cc(-c2cnc3cc(-c4cnn(C)c4)c(O[C@H]4CCOC4)nn23)c(F)c(C2CC2)c1` [Example 38, (S)-3-Cyclopropyl-4-fluoro-N-methyl-5-(7-(1-methyl-1H-pyrazol-4-yl)-6-((tetrahydrofuran-3-yl)oxy)imidazo[1,2-b]pyridazin-3-yl)benzamide]: the 50% inhibitory concentration (IC50) in experiment [1] was below 10 nM; in experiment [2] it was 10 to 100 nM.

In the case of `Cc1cc(-c2cn(C)nn2)cc(-c2cnc3cc(-c4cnn(C)c4)c(O[C@H]4CCOC4)nn23)c1F` [Example 39, (S)-3-(2-Fluoro-3-methyl-5-(1-methyl-1H-1,2,3-triazol-4-yl)phenyl)-7-(1-methyl-1H-pyrazol-4-yl)-6-((tetrahydrofuran-3-yl)oxy)imidazo[1,2-b]pyridazine], the IC50 in experiment [1] is 100 to 400 nM; in experiment [2], at least 400 nM.

`CNC(=O)c1cc(-c2cnc3cc(-c4cnn(C)c4)c(O[C@H]4CCOC4)nn23)c(F)c(C(F)F)c1` [Example 41, (S)-3-(Difluoromethyl)-4-fluoro-N-methyl-5-(7-(1-methyl-1H-pyrazol-4-yl)-6-((tetrahydrofuran-3-yl)oxy)imidazo[1,2-b]pyridazin-3-yl)benzamide] came in with an IC50 in experiment [3] below 10 nM.

`CNC(=O)c1cc(C)c(F)c(-c2cnc3cc(-c4cnn(C)c4)c(O[C@H]4CCOC4)nn23)c1` [Example 42, (S)-4-Fluoro-N,3-dimethyl-5-(7-(1-methyl-1H-pyrazol-4-yl)-6-((tetrahydrofuran-3-yl)oxy)imidazo[1,2-b]pyridazin-3-yl)benzamide]: in experiment [3], the IC50 is below 10 nM.

For the molecule `CNC(=O)c1cc(F)c(F)c(-c2cnc3cc(-c4cnn(C)c4)c(O[C@H]4CCOC4)nn23)c1` [Example 43, (S)-3,4-Difluoro-N-methyl-5-(7-(1-methyl-1H-pyrazol-4-yl)-6-((tetrahydrofuran-3-yl)oxy)imidazo[1,2-b]pyridazin-3-yl)benzamide], the IC50 in experiment [3] is below 10 nM.

Consider `CNC(=O)c1cncc(-c2cnc3cc(-c4cnn(C)c4)c(OCC(F)F)nn23)c1` [Example 50, 5-(6-(2,2-Difluoroethoxy)-7-(1-methyl-1H-pyrazol-4-yl)imidazo[1,2-b]pyridazin-3-yl)-N-methylnicotinamide], for which the IC50 in experiment [1] is 10 to 100 nM; in experiment [2] it was at least 400 nM.

As to `CNC(=O)c1cccc(-c2cnc3cc(-c4cnn(C)c4)c(OC4CC(C#N)C4)nn23)c1` (centres unmarked) [Example 56, 3-(6-(3-Cyanocyclobutoxy)-7-(1-methyl-1H-pyrazol-4-yl)imidazo[1,2-b]pyridazin-3-yl)-N-methylbenzamide], the IC50 in experiment [1] and in experiment [2] was 100 to 400 nM in each case.

For the molecule `Cn1cc(-c2cc3ncc(-c4cccc(-n5cccn5)c4)n3nc2OC2COC2)cn1` [Example 61, 3-(3-(1H-Pyrazol-1-yl)phenyl)-7-(1-methyl-1H-pyrazol-4-yl)-6-(oxetan-3-yloxy)imidazo[1,2-b]pyridazine], the IC50 in experiment [1] and in experiment [2] was 10 to 100 nM in each case.

Regarding `Cn1cc(-c2cc3ncc(-c4ccc5cnn(C)c5c4)n3nc2OC2CCOC2)cn1` (centres unmarked) [Example 65, 3-(1-Methyl-1H-indazol-6-yl)-7-(1-methyl-1H-pyrazol-4-yl)-6-((tetrahydrofuran-3-yl)oxy)imidazo[1,2-b]pyridazine], the IC50 was 100 to 400 nM in experiment [1] and at least 400 nM in experiment [2].

Turning to `Cn1cc(-c2cc3ncc(-c4ccc5oncc5c4)n3nc2OC2CCOC2)cn1` (centres unmarked) [Example 66, 5-(7-(1-Methyl-1H-pyrazol-4-yl)-6-((tetrahydrofuran-3-yl)oxy)imidazo[1,2-b]pyridazin-3-yl)benzo[d]isoxazole], the IC50 was in the range of 10 to 100 nM in experiment [1] and 100 to 400 nM in experiment [2].
